# Laboratory results taken from publication PMC7906020, “Trp-Containing Antibacterial Peptides Impair Quorum Sensing and Biofilm Development in Multidrug-Resistant Pseudomonas aeruginosa and Exhibit Synergistic Effects With Antibiotics” (Frontiers in Microbiology, 2021).
# Peptide text beside a SMILES is read from it.
# Assays:
# [1] = tested on: alginate production in MRPA0108; test: Alginate determination, H2SO4-carbazole method; format: cell-based, Pseudomonas aeruginosa; details: OD 530 nm
# Method: (§1) Exopolysaccharides were determined using the phenol-H2SO4 method. Briefly, after incubation, the cultures were centrifuged at 10,000 rpm for 15 min, and the pellets were resuspended in high-salt buffer (10 mM KPO4, 5 mM NaCl, 2.5 mM MgSO4, pH 7.0), followed by recentrifugation at 10,000 rpm for 30 min. The resulting supernatant was mixed with three volumes of chilled ethanol (100%) and incubated overnight at 4°C. The precipitated exopolysaccharide was added to a mixture containing cold phenol and H2SO4, and the absorbance of the solution was measured at 490 nm. Alginate content was determined using the H2SO4-carbazole method. Briefly, after incubation, the precooled cultures were mixed with an H2SO4 solution (4:1) and vortexed in ice water, and then 0.2% carbazole dissolved in ethanol was added. The mixture was revortexed and incubated at 55°C for 30 min, and the OD 530 nm was measured.
# MRPA0108 biofilms = test: Confocal laser scanning microscopy of biofilms (LIVE/DEAD staining); format: cell-based, Pseudomonas aeruginosa; details: 24 h; for percentage of dead/live cells in biofilm: SYTO9/PI, control 8.7%
# Method: Biofilms of MRPA0108 were visualized by confocal microscopy. Mid-log growth-phase bacteria were diluted to 1 × 10^7 CFU/ml. […] LB liquid medium and erythromycin were used as negative and positive controls, respectively. After incubation, the supernatant was removed, and the slides were washed and stained in a dark environment for 30 min using a LIVE/DEAD BacLight^TM Bacterial Viability Kit (Invitrogen, Life Technologies, Shanghai, China). The slides were washed three times and imaged with a confocal laser scanning microscope (LSM 710, Carl Zeiss, Germany) with excitation/emission wavelengths of 480/500 and 490/635 nm for SYTO9 and propidium iodide (PI), respectively. SYTO9 was used to indicate live bacteria, and PI was used to mark dead bacteria.
# [2] = tested on: LasB elastase of MRPA0108; test: LasB elastase activity, elastin-Congo red method; format: cell-based, Pseudomonas aeruginosa; details: peptide at 1/4 × MIC, 24 h, 37°C; ECR substrate, OD495/OD600; vs control; triplicate
# Method: The culture supernatant was obtained after centrifugation at 12,000×g for 10 min. (1) LasB elastase activity was measured using elastin-Congo red (ECR) as the substrate, as described by [Pattnaik et al. (2018)]. Briefly, 100 μl of the culture supernatant was added to 900 μl of ECR buffer (100 mM Tris-HCl, 1 mM CaCl2, pH 7.5) containing 10 mg of ECR and then incubated with shaking at 37°C for 18 h. Then, 100 μl of 0.12 M EDTA was added to stop the reaction. The insoluble ECR was removed by centrifugation, and the supernatant absorbance was measured at 495 nm. The optical density (OD) 495 nm/OD 600 nm represents the elastase activity. (2) LasA protease activity was measured as follows ([Pattnaik et al., 2018]): first, the culture supernatant was filtered to remove the bacterial cells, and then 150 μl of sterile-filtered supernatant was added to 2% azocasein (prepared in 50 mM Tris-HCl) and incubated for 4 h at 37°C. Trichloroacetic acid (TCA, 10%) was added to precipitate the undigested substrate. After centrifugation at 10,000 rpm for 10 min, 1 M NaOH was added to the supernatant, and the relative protease activity was measured at OD 440 nm. (3) The pyocyanin assay was based on the absorbance of excreted pyocyanin at 520 nm in an acidic solution ([Kong et al., 2005]). Three milliliters of culture supernatant were mixed with 2 ml of chloroform for 20 min, and then the pyocyanin from the chloroform phase was reextracted using 0.2 M HCl for 15 min to obtain a pink-colored pyocyanin solution. The OD 520 nm was measured to evaluate the change in pyocyanin content. (4) Rhamnolipid detection was carried out as previously described ([Wittgens et al., 2011]). Briefly, 500 μl of culture supernatant was mixed with 500 μl of ethyl acetate and vortexed vigorously for 15 s to extract rhamnolipid. After centrifugation at 10,000×g for 5 min at 4°C, the organic phase containing rhamnolipids was obtained and evaporated at room temperature overnight. […] The absorbance was measured at 420 nm. (5) The level of C4-HSL was quantified by GC-MS as previously described ([Guo et al., 2012]).
# [3] = cited from earlier work
# Text: Supplement Table_1.docx, table 1: Table S1 Biological characteristics and antibacterial activities of the Trp-containing antimicrobial peptides (32) | column: Hemolysis (μM)
# MRPA0108 strain [4] = details: previous study, ref Han et al., 2020; cited from earlier work
# Text: Supplement Table_1.docx, table 1: Table S1 Biological characteristics and antibacterial activities of the Trp-containing antimicrobial peptides (32) | column: MIC(μM)
# [5] = tested on: exopolysaccharide production in MRPA0108; test: Exopolysaccharide determination, phenol-H2SO4 method; format: cell-based, Pseudomonas aeruginosa; details: phenol-H2SO4, 490 nm
# Method: as §1
# [6] = tested on: rhamnolipid production in MRPA0108; test: Rhamnolipid production, orcinol method; format: cell-based, Pseudomonas aeruginosa; details: peptide at 1/4 × MIC, 24 h, absorbance 420 nm, vs control, triplicate
# Method: The culture supernatant was obtained after centrifugation at 12,000×g for 10 min. (1) LasB elastase activity was measured using elastin-Congo red (ECR) as the substrate, as described by [Pattnaik et al. (2018)]. Briefly, 100 μl of the culture supernatant was added to 900 μl of ECR buffer (100 mM Tris-HCl, 1 mM CaCl2, pH 7.5) containing 10 mg of ECR and then incubated with shaking at 37°C for 18 h. Then, 100 μl of 0.12 M EDTA was added to stop the reaction. The insoluble ECR was removed by centrifugation, and the supernatant absorbance was measured at 495 nm. The optical density (OD) 495 nm/OD 600 nm represents the elastase activity. (2) LasA protease activity was measured as follows ([Pattnaik et al., 2018]): first, the culture supernatant was filtered to remove the bacterial cells, and then 150 μl of sterile-filtered supernatant was added to 2% azocasein (prepared in 50 mM Tris-HCl) and incubated for 4 h at 37°C. Trichloroacetic acid (TCA, 10%) was added to precipitate the undigested substrate. After centrifugation at 10,000 rpm for 10 min, 1 M NaOH was added to the supernatant, and the relative protease activity was measured at OD 440 nm. (3) The pyocyanin assay was based on the absorbance of excreted pyocyanin at 520 nm in an acidic solution ([Kong et al., 2005]). Three milliliters of culture supernatant were mixed with 2 ml of chloroform for 20 min, and then the pyocyanin from the chloroform phase was reextracted using 0.2 M HCl for 15 min to obtain a pink-colored pyocyanin solution. The OD 520 nm was measured to evaluate the change in pyocyanin content. (4) Rhamnolipid detection was carried out as previously described ([Wittgens et al., 2011]). Briefly, 500 μl of culture supernatant was mixed with 500 μl of ethyl acetate and vortexed vigorously for 15 s to extract rhamnolipid. After centrifugation at 10,000×g for 5 min at 4°C, the organic phase containing rhamnolipids was obtained and evaporated at room temperature overnight. The rhamnolipid extract dissolved in ultrapure water was mixed with orcinol reagent (0.19% orcinol in 53% H2SO4) and incubated at 80°C for 30 min. The absorbance was measured at 420 nm. (5) The level of C4-HSL was quantified by GC-MS as previously described ([Guo et al., 2012]).
# [7] = tested on: β-lactamase activity in MRPA0108 cells; test: β-Lactamase activity assay (nitrocefin kit) in treated cells; format: cell-based, Pseudomonas aeruginosa; details: MRPA0108 cells treated with antibiotic alone, compared to control
# Method: β-lactamase activity was measured by using a β-lactamase assay kit (YIASEN Biotech Co., Ltd., Shanghai, China) according to the manufacturer’s instructions. Briefly, mid-log growth-phase bacteria were diluted to 1 × 10^8 CFU/ml and treated with I1W or L12W at concentrations ranging from 3.13 to 50 μM for 12 h at 37°C. After induction, the cultures were harvested by centrifugation at 5,000 rpm at 4°C, washed three times with PBS buffer (pH 7.2), and then resuspended in the same buffer. The cells were sonicated on ice for 15 min, and the cell lysates containing β-lactamase were collected by centrifugation at 12,000 rpm for 30 min at 4°C. Fifty microliters of the prepared β-lactamase-containing lysates was mixed with 50 μl of assay buffer containing nitrocefin and reacted at room temperature in a dark environment for 20 min. Nitrocefin hydrolysis was measured spectrophotometrically at 490 nm. Concurrently, the total protein content was determined with a Bradford assay using the same supernatant. One milliunit of β-lactamase is defined as 1 nanomole of nitrocefin hydrolyzed per minute per microgram of protein.
# MRPA0108 strain [8] = test: MIC of antibiotics alone and in combination with 1/4 × MIC peptide; format: cell-based, Pseudomonas aeruginosa; details: for fold reduction of MIC of the antibiotic: antibiotic in combination with Trp-containing peptides at 1/4 × MIC, range over the peptides
# Method: FIGURE 6 Antibacterial activity of antibiotics in combination with the Trp-containing peptides. Bacterial cultures were treated with a series of concentration of antibiotics ceftazidime (A), piperacillin (B), and levofloxacin (C) in the absence (control) and presence of a 1/4 × MIC peptide concentration at 37C overnight. The OD600 was recorded using a microtiter plate reader. The MIC was defined as the lowest antibiotics concentration that inhibited 95% of the bacterial growth. Phenylalanyl arginyl β-naphthylamide (PAβN), a broad-spectrum inhibitor for efflux pump, was used as a positive control. Each data point represents an average of six independent experiments. *P < 0.05 and **P < 0.01 indicate statistically significant differences between antibiotics alone and antibiotics in combination with peptide.
# [9] = lowest concentration inhibiting 95% of growth, overnight 37°C, six experiments
smiles,measurement,setting,value
CC[C@H](C)[C@H](N)C(=O)N[C@@H](CCCCN)C(=O)N[C@@H](CCCCN)C(=O)N[C@@H](Cc1c[nH]c2ccccc12)C(=O)N[C@@H](CC(C)C)C(=O)N[C@@H](CO)C(=O)N[C@@H](CCCCN)C(=O)N[C@H](C(=O)N[C@@H](CCCCN)C(=O)N[C@@H](CCCCN)C(=O)N[C@@H](CC(C)C)C(=O)N[C@@H](CC(C)C)C(=O)N[C@@H](CCCCN)C(N)=O)[C@@H](C)CC [I4W] (H-IKKWLSKIKKLLK-NH2; N-terminus and C-terminus assumed),inhibition of alginate production,[1]; peptide at 1/4 × MIC,47%
same,inhibition of alginate production,[1]; peptide at 1 × MIC,68%
same,average biofilm thickness,"MRPA0108 biofilms; after treatment with low concentrations of peptide (1 × MIC or 2 × MIC), 37°C, control biofilm 6 μm",1.5–2.5 μm
same,percentage of dead/live cells in biofilm,MRPA0108 biofilms; peptide at 1 × MIC,31.2%
same,percentage of dead/live cells in biofilm,MRPA0108 biofilms; peptide at 2 × MIC,41.7%
same,decrease of LasB elastase activity,[2],22.3%
same,Hemolysis,[3],> 500 µM
same,MIC,MRPA0108 strain [4],6.25 µM
same,reduction of exopolysaccharide production,"[5]; peptide at 1/4 × MIC, overnight 37°C",25.0%
same,reduction of exopolysaccharide production,[5]; peptide at 1 × MIC,65.2%
same,reduction of exopolysaccharide production,[5]; peptide concentration increased onefold from 1/4 × MIC,42.4%
same,inhibition of rhamnolipid production,[6],43.9%
CC(C)(O/N=C(\C(=O)N[C@@H]1C(=O)N2C(C(=O)[O-])=C(C[n+]3ccccc3)CS[C@H]12)c1csc(N)n1)C(=O)O [ceftazidime],increase of β-lactamase activity,[7],fourfold
same,fold reduction of MIC of the antibiotic,MRPA0108 strain [8],8–32 fold
same,MIC of antibiotic alone,MRPA0108 strain [8]; [9],30 µM
same,MIC of antibiotic in combination with 1/4 × MIC L12W,MRPA0108 strain [8]; [9],0.94 µM
C[C@H]1COc2c(N3CCN(C)CC3)c(F)cc3c(=O)c(C(=O)O)cn1c23 [levofloxacin],fold reduction of MIC of the antibiotic,MRPA0108 strain [8],0–4 fold
"CCN1CCN(C(=O)N[C@@H](C(=O)N[C@@H]2C(=O)N3[C@@H]2SC(C)(C)[C@@H]3C(=O)O)c2ccccc2)C(=O)C1=O [piperacillin, reference compound]",increase of β-lactamase activity,[7],1.8 fold
same,fold reduction of MIC of the antibiotic,MRPA0108 strain [8],2–11 fold
